pEC50: −log10 of the molar value. In brackets after ≈: the same amount, converted by molar mass.
Experiments:
[1] = system: E6SM; experiment: Tested for cytotoxic activity in human embryonic skin muscle fibroblast (E6SM); format: functional; details: Muscle tissue
[2] = system: HEL; experiment: Tested for antiviral activity against thymidine kinase deficient Varicella zoster virus in human embryonic lung fibroblasts; format: functional
[3] = system: MOLT-4; experiment: Tested for the inhibitory concentration against cell growth of human leukemic cell line MOLT-4; format: functional
[4] = system: K562; experiment: Tested for the inhibitory concentration against cell growth of K562 chronic myeloid leukemia using MTT assay; format: functional; details: Homo sapiens
[5] = system: HuT78; experiment: Tested for the inhibitory concentration against cell growth of HuT78 T lymphoma using MTT assay; format: functional; details: Homo sapiens
[6] = system: CCRF-CEM; experiment: Tested for the inhibitory concentration against cell growth of Tcell leukemic cell line CCRF-CEM using MTT assay; format: functional; details: Homo sapiens
[7] = system: E6SM; experiment: Antiviral activity against thymidine kinase-deficient (TK-HSV-1)virus in E6SM cell line(human embryonic skin-muscle fibroblasts); format: functional
[8] = system: Vero; experiment: Tested for antiviral activity against coxsackie B-4 virus in African green monkey kidney cell (Vero); format: functional; details: Chlorocebus sabaeus
[9] = system: Vero; experiment: Tested for antiviral activity against parainfluenza virus in african green monkey kidney cell (Vero); format: functional; details: Chlorocebus sabaeus
[10] = system: E6SM; experiment: Tested for antiviral activity against VSV-virus in human embryonic skin muscle fibroblasts; format: functional; details: Muscle tissue
[11] = system: HeLa; experiment: Tested for antiviral activity against coxsackie-B4 virus in human epithelial cell line; format: functional
[12] = system: CCRF-CEM; experiment: Tested for the concentration required to reduce the viability of leukemia cells by 50% against cell growth of T cell leukemia cell line CCRF-CEM using MTT assay; format: functional; details: Homo sapiens
[13] = system: Escherichia coli; experiment: Tested for the antimicrobial activity against Escherichia coli ATCC 25922; format: functional
[14] = system: E6SM; experiment: Tested for antiviral activity against thymidine kinase-deficient (TK-HSV-2G) virus in E6SM cell line(human embryonic skin-muscle fibroblasts); format: functional
[15] = system: Vero; experiment: Tested for antiviral activity against Sindbis virus in African green monkey kidney cell (Vero); format: functional; details: Chlorocebus sabaeus
[16] = system: MT4; experiment: Tested for cytotoxic concentration required to reduce the viability of MT-4 cells by 50%; format: functional, cell-based; details: Homo sapiens, read-out: EC50 (the source's name)
[17] = system: HEL; experiment: Tested for antiviral activity against thymidine kinase wild type Varicella zoster virus in human embryonic lung fibroblast; format: functional
[18] = system: MOLT-4; experiment: Tested for the concentration required to reduce the viability of leukemia cells by 50% against cell growth of T cell leukemia cell line MOLT-4 using MTT assay; format: functional; details: Homo sapiens
[19] = system: HEL; experiment: Tested for antiviral activity against human cytomegalovirus (AD-169) in human embryonic lung fibroblasts; format: functional
[20] = system: MOLT-4; experiment: Tested for the inhibitory concentration against cell growth of Tcell leukemic cell line MOLT-4 using MTT assay; format: functional; details: Homo sapiens
[21] = system: HL-60; experiment: Tested for the inhibitory concentration against cell growth of HL60 acute myeloid leukemia using MTT assay; format: functional; details: Homo sapiens
[22] = system: RPMI-8226; experiment: Tested for the inhibitory concentration against cell growth of human leukemic cell line RPMI8226; format: functional
[23] = system: RPMI-8226; experiment: Tested for the inhibitory concentration against cell growth of […] multiple myeloma using MTT assay; format: functional; details: Homo sapiens
[24] = system: MT4; experiment: Tested for effective concentration required to protect MT-4 cells against the cytopathicity of HIV-2(ROD); format: functional, cell-based; details: Homo sapiens
[25] = system: Vero; experiment: Tested for antiviral activity against Reo-1 virus in African green monkey kidney cell (Vero); format: functional; details: Chlorocebus sabaeus
[26] = system: K562; experiment: Tested for the inhibitory concentration against cell growth of human leukemic cell line K562; format: functional
[27] = system: HEL; experiment: Tested for cytotoxic activity in human embryonic lung fibroblast (HEL); format: functional
[28] = system: HuT78; experiment: Tested for the concentration required to reduce the viability of leukemia cells by 50% against cell growth of HuT78 T lymphoma using MTT assay; format: functional; details: Homo sapiens
[29] = system: HeLa; experiment: The compound was tested for antiviral activity against VSV-virus in human epithelial cells; format: functional
[30] = system: RPMI-8226; experiment: Tested for the concentration required to reduce the viability of leukemia cells by 50% against cell growth of RPMI8226 multiple myeloma using MTT assay; format: functional; details: Homo sapiens, read-out: LC50 (the source's name)
[31] = system: HL-60; experiment: Tested for the concentration required to reduce the viability of leukemia cells by 50% against cell growth of HL60 acute myeloid leukemia using MTT assay; format: functional; details: Homo sapiens, read-out: LC50 (the source's name)
[32] = system: Klebsiella pneumoniae; experiment: Tested for the antimicrobial activity against Klebsiella pneumoniae ATCC 13883; format: functional
[33] = system: HL-60; experiment: Tested for the inhibitory concentration against cell growth of human leukemic cell line HL60; format: functional
[34] = system: E6SM; experiment: Tested for antiviral activity against vaccinia virus in human embryonic skin muscle fibroblast; format: functional; details: Muscle tissue
[35] = system: Vero; experiment: Tested for cytotoxic activity in African green monkey kidney cells (Vero); format: functional; details: Chlorocebus sabaeus
[36] = system: Staphylococcus hominis; experiment: Tested for the antimicrobial activity against Staphylococcus hominis ATCC 27844; format: functional
[37] = system: HeLa; experiment: Tested for cytotoxic activity in human epithelial cell line (HeLa); format: functional
[38] = system: MT4; experiment: Tested for effective concentration required to protect MT-4 cells against the cytopathicity of HIV-1(IIIB); format: functional; details: Homo sapiens, read-out: LC50 (the source's name)
[39] = system: Vero; experiment: Tested for antiviral activity against Punta toro virus in African green monkey kidney cell (Vero); format: functional; details: Chlorocebus sabaeus
[40] = system: Staphylococcus aureus; experiment: Tested for the antimicrobial activity against Staphylococcus aureus ATCC 6538; format: functional
[41] = system: CCRF-CEM; experiment: Tested for the inhibitory concentration against cell growth of human leukemic cell line CCRF-CEM; format: functional
[42] = system: K562; experiment: Tested for the concentration required to reduce the viability of leukemia cells by 50% against cell growth of K562 chronic myeloid leukemia using MTT assay; format: functional; details: Homo sapiens, read-out: LC50 (the source's name)
[43] = system: HuT78; experiment: Tested for the inhibitory concentration against cell growth of human leukemic cell line HuT78; format: functional
[44] = system: Staphylococcus epidermidis; experiment: Tested for the antimicrobial activity against Staphylococcus epidermidis ATCC 12228; format: functional
[45] = system: E6SM; experiment: Tested for antiviral activity against herpes simplex virus type 1(KOS) in E6SM cell line(human embryonic skin-muscle fibroblasts); format: functional

C/C(=N/N=C(/S)NN)C12CC3CC(CC(C3)C1)C2
MCC [1]: > 80 µg/mL | MIC [2]: > 20 µg/mL | GI50 [3]: 22.2 µM | TGI [4]: 68.4 µM | TGI [5]: 100 µM | TGI [6]: 100 µM | MIC [7]: > 16 µg/mL | MIC [8]: > 80 µg/mL | MIC [9]: > 80 µg/mL | MIC [10]: > 16 µg/mL | MIC [11]: > 16 µg/mL | TGI [12]: 100 µM | MIC [13]: > 3760 µg/mL | MIC [14]: > 16 µg/mL | MIC [15]: > 80 µg/mL | CC50 [16]: 7.1 µM | MIC [17]: 10.5 µg/mL (≈ 39.4 µM) | TGI [18]: 100 µM | MIC [19]: > 5 µg/mL | TGI [20]: 100 µM | TGI [21]: 92 µM | GI50 [22]: 94.2 µM | TGI [23]: 100 µM | pEC50 [24]: < 5.15 | MIC [25]: > 80 µg/mL | GI50 [26]: 14.7 µM | MCC [27]: > 20 µg/mL | TGI [28]: 100 µM | MIC [29]: > 16 µg/mL | CC50 [30]: 100 µM | CC50 [31]: 100 µM | MIC [32]: > 3760 µg/mL | GI50 [33]: 48.7 µM | MIC [34]: > 16 µg/mL | MCC [35]: 80 µg/mL | MIC [36]: > 3760 µg/mL | MCC [37]: 80 µg/mL | pEC50 [38]: < 5.15 | MIC [39]: > 80 µg/mL | MIC [40]: > 3760 µg/mL | GI50 [41]: 36.8 µM | CC50 [42]: 100 µM | GI50 [43]: 20.5 µM | MIC [44]: > 3760 µg/mL | MIC [45]: > 16 µM

C/C(=N/N=C(/S)N/N=C(\S)c1ccc(Cl)cc1Cl)C12CC3CC(CC(C3)C1)C2
MCC [1]: 80 µg/mL | MIC [2]: > 2 µg/mL | GI50 [3]: 32.4 µM | TGI [4]: 100 µM | TGI [5]: 100 µM | TGI [6]: 100 µM | MIC [7]: 9.6 µg/mL (≈ 21.1 µM) | MIC [8]: > 3.2 µg/mL | MIC [9]: > 3.2 µg/mL | MIC [10]: > 16 µg/mL | MIC [11]: > 3.2 µg/mL | TGI [12]: 100 µM | MIC [13]: > 2130 µg/mL | MIC [14]: 9.6 µg/mL (≈ 21.1 µM) | MIC [15]: > 3.2 µg/mL | CC50 [16]: 2.4 µM | MIC [17]: > 2 µg/mL | TGI [18]: 100 µM | MIC [19]: > 2 µg/mL | TGI [20]: 100 µM | TGI [21]: 6.2 µM | GI50 [22]: 3.6 µM | TGI [23]: 29.3 µM | pEC50 [24]: < 5.70 | MIC [25]: > 3.2 µg/mL | GI50 [26]: 24.7 µM | MCC [27]: 5 µg/mL | TGI [28]: 100 µM | MIC [29]: > 3.2 µg/mL | CC50 [30]: 100 µM | CC50 [31]: 10 µM | MIC [32]: > 2130 µg/mL | GI50 [33]: 2.4 µM | MIC [34]: > 16 µg/mL | MCC [35]: 16 µg/mL | MIC [36]: 133 µg/mL (≈ 292 µM) | MCC [37]: 16 µg/mL | pEC50 [38]: < 5.70 | MIC [39]: > 3.2 µg/mL | MIC [40]: 133 µg/mL (≈ 292 µM) | GI50 [41]: 5.7 µM | CC50 [42]: 100 µM | GI50 [43]: 8.1 µM | MIC [44]: 133 µg/mL (≈ 292 µM) | MIC [45]: > 16 µg/mL

— ChEMBL document CHEMBL1135216, “New 2-(1-adamantylcarbonyl)pyridine and 1-acetyladamantane thiosemicarbazones-thiocarbonohydrazones: cell growth inhibitory, antiviral and antimicrobial activity evaluation” (Bioorg Med Chem Lett, 2002)
